Test [1] concerns the target T1, Adenosine receptor A3 (Homo sapiens) (UniProt P0DMS8).
T1 sequence (whole entry): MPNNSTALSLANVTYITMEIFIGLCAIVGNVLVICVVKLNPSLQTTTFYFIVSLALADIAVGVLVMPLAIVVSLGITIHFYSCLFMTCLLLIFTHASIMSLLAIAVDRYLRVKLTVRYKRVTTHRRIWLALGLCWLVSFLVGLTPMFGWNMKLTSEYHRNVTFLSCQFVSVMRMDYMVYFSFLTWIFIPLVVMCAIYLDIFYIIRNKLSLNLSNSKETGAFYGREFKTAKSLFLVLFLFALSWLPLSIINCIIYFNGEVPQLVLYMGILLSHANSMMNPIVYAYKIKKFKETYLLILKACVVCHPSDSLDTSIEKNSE
Put plainly: Displacement of [3H]NECA from human A3 receptor expressed in human HeLa cell membranes at 1 uM incubated for 180 mins by radioligand binding competition assay relative to control. On the technique in general: In a radioligand displacement assay an active substance lowers the binding of a labelled ligand.

Test [2] addresses T2, Adenosine receptor A1 (Homo sapiens) (UniProt P30542).
T2 sequence (whole entry): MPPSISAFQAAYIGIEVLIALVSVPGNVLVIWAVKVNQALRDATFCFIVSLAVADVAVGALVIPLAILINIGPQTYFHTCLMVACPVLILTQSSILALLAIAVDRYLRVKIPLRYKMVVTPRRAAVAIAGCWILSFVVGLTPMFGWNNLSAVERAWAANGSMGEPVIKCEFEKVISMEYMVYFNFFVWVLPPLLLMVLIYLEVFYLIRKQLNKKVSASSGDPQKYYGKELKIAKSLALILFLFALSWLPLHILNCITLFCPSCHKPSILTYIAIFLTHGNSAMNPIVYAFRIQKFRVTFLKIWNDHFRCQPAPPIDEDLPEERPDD
Nature of the test: Displacement of [3H]DPCPX from human recombinant A1 receptor expressed in CHOA1 cell membranes at 1 uM incubated for 60 mins by radioligand binding competition assay relative to control.

The target of test [3] is T3, Adenosine receptor A2b (Homo sapiens) (UniProt P29275).
T3 sequence (whole entry): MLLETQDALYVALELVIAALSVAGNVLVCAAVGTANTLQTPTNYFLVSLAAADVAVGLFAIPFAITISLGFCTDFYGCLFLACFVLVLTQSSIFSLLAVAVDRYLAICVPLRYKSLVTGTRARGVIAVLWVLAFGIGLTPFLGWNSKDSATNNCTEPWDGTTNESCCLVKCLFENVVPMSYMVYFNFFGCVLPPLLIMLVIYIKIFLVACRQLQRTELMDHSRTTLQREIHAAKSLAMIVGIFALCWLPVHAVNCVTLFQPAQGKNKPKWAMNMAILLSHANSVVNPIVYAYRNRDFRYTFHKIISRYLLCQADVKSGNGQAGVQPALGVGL
Put plainly: Displacement of [3H]DPCPX from human recombinant A2B receptor expressed in human HEK293 cell membranes at 1 uM incubated for 30 mins by radioligand binding competition assay relative to control.

Test [4] deals with Adenosine receptor A2a (Homo sapiens, UniProt P29274). Put plainly: Displacement of [3H]ZM241385 from human recombinant A2A receptor expressed in human HeLa cell membranes at 1 uM incubated for 30 mins by radioligand binding competition assay relative to control.
Chain of Adenosine receptor A2a (P29274 whole entry): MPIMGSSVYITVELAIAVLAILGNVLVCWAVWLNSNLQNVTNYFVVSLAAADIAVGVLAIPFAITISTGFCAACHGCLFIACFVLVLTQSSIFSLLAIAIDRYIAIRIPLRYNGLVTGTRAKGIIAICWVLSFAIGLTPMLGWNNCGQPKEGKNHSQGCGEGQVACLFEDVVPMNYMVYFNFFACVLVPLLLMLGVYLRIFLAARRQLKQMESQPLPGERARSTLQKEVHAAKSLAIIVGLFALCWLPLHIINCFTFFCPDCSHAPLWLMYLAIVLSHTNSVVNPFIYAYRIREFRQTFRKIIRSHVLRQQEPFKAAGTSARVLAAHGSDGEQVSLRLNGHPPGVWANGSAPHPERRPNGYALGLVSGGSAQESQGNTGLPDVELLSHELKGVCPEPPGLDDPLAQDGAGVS

For orientation: inhibition means the drop in the measured response relative to a control, in per cent. `CCOC(=O)C1=C(C(F)(F)F)Nc2nc3ccccc3n2C1c1cccs1` (racemic): the inhibition in test [1] was 19%; in test [2] it was 7%; in test [3], 38%; in test [4], 4%.

In the case of `CC1=C(C(=O)OC(C(F)(F)F)C(F)(F)F)C(c2ccoc2)NC(=O)N1` (racemic), the inhibition was found to be 1% in test [1], 7% in test [2], 2% in test [3] and 22% in test [4].

Consider `CC1=C(C(=O)OC(C(F)(F)F)C(F)(F)F)C(c2ccoc2)n2c(nc3ccccc32)N1` (racemic), for which the inhibition in test [1] is 6%; in test [2], 24%; in test [3] it was 21%; in test [4] it was 10%.

With `CC1=C(C(=O)OC(C)C(F)(F)F)C(c2ccsc2)NC(=O)N1` (stereo in doubt; 14l-D2), the inhibition in test [1] is 1%; in test [2], 3%; in test [3], 1%; in test [4] it was 2%.

On to `CC1=C(C(=O)OC(C)C(F)(F)F)C(c2cccs2)NC(=O)N1` (stereo in doubt; 14k-D1), for which the inhibition in test [1] came to 3%; in test [2] it was 12%; in test [3], 4%; in test [4], 2%.

On to `CC1=C(C(=O)OC(C)C(F)(F)F)C(c2ccoc2)NC(=O)N1` (stereo in doubt; 14j-D1), for which the values for the inhibition in test [1], in test [2] and in test [4] were 12%, 10% and 1%, respectively.

On to `CC1=C(C(=O)OC(C)C)C(c2ccsc2)n2c(nc3ccccc32)N1` (centres undefined), for which the values for the inhibition in test [1], in test [2] and in test [4] were 21%, 11% and 3%, respectively.

As for `CC1=C(C(=O)OC(C)C)C(c2ccoc2)n2c(nc3ccccc32)N1` (centres undefined), the inhibition was 2% in test [1], 12% in test [2] and 23% in test [4].

For the compound `CCOC(=O)C1=C(C(F)(F)F)Nc2nc3ccccc3n2[C@H]1c1ccoc1`, the figures for the inhibition in test [1], in test [2] and in test [4] were 3%, 10% and 17%, respectively.

Consider `CCOC(=O)C1=C(C)Nc2nc3ccccc3n2C1c1cccs1` (centres undefined), for which the inhibition worked out at 1% in test [1], 8% in test [2] and 16% in test [4].

Take `CC1=C(C(=O)OC(C)C(F)(F)F)C(c2ccsc2)NC(=O)N1` (stereo in doubt; 14l-D1): the inhibition in test [1] was 2%; in test [2] it was 3%; in test [4], 2%.

For the compound `CCOC(=O)C1=C(C)Nc2nc3ccccc3n2C1c1ccoc1` (centres undefined), the inhibition in test [1] was 1%; in test [2] it was 7%; in test [4], 11%.

Consider `CCOC(=O)C1=C(C)Nc2nc3ccccc3n2C1c1ccsc1` (centres undefined), for which the inhibition in test [1] came out at 2%; in test [2], 3%; in test [4] it was 10%.

Consider `CC1=C(C(=O)OC(C)C(F)(F)F)C(c2ccco2)NC(=O)N1` (stereo in doubt; 14i-D1), for which the inhibition is 11% in test [1], 1% in test [2] and 3% in test [4].

As to `CCOC(=O)C1=C(C)Nc2nc3ccccc3n2C1c1ccco1` (centres undefined), the inhibition was determined as 1% in test [1], 5% in test [2] and 14% in test [4].

Take `CC1=C(C(=O)OC(C)C(F)(F)F)C(c2ccco2)NC(=O)N1` (stereo in doubt; 14i-D2): the inhibition in test [1] was determined as 7%; in test [2], 1%; in test [4], 1%.

On to `CC1=C(C(=O)OCC(F)(F)F)[C@H](c2ccco2)n2c(nc3ccccc32)N1`, for which the inhibition in test [1] turned out to be 8%; in test [2], 12%; in test [4], 3%.

In the case of `CC1=C(C(=O)OC(C)C)C(c2cccs2)n2c(nc3ccccc32)N1` (centres undefined), the inhibition came out at 3% in test [1], 1% in test [2] and 17% in test [4].

The values are drawn from ChEMBL document CHEMBL4414598, “Trifluorinated Pyrimidine-Based A2B Antagonists: Optimization and Evidence of Stereospecific Recognition” (J Med Chem, 2019).
